According to ChEMBL document CHEMBL1938312, “Design and combinatorial synthesis of a novel kinase-focused library using click chemistry-based fragment assembly” (Bioorg Med Chem Lett, 2012):

Tests used:
[1] = biological target: T1, Receptor-type tyrosine-protein kinase FLT3 (Homo sapiens, UniProt P36888); test: Inhibition of FLT3 by colorimetric analysis
T1 sequence (P36888 whole entry): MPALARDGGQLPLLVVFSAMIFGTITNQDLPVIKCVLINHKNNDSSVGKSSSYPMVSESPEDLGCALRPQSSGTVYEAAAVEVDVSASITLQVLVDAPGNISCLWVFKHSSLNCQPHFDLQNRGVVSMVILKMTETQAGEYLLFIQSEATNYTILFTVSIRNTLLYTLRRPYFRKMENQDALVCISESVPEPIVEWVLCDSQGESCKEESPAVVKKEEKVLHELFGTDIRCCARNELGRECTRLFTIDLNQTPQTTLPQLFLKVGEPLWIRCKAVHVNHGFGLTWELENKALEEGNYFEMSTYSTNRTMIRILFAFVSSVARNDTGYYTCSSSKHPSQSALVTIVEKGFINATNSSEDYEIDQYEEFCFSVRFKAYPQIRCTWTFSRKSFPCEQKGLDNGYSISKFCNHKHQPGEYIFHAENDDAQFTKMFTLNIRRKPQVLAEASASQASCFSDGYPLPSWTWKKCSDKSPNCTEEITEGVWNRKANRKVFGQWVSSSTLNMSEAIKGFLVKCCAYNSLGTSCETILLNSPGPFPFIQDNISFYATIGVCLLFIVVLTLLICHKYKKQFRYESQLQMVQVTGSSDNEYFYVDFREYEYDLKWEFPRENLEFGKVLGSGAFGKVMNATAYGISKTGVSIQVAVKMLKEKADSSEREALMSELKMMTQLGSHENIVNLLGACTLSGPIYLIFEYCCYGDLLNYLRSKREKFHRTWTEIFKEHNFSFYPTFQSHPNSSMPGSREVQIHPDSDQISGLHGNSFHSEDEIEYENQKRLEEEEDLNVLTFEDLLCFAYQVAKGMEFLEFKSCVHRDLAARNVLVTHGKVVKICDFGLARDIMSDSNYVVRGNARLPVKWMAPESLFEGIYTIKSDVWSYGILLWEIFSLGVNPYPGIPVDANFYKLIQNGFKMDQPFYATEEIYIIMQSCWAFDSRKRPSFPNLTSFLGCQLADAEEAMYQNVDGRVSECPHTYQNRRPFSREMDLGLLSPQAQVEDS

[2] = biological target: Glycogen synthase kinase-3 beta (Homo sapiens, UniProt P49841); test: Inhibition of GSK3-beta by colorimetric analysis
Glycogen synthase kinase-3 beta, sequence (P49841 whole entry): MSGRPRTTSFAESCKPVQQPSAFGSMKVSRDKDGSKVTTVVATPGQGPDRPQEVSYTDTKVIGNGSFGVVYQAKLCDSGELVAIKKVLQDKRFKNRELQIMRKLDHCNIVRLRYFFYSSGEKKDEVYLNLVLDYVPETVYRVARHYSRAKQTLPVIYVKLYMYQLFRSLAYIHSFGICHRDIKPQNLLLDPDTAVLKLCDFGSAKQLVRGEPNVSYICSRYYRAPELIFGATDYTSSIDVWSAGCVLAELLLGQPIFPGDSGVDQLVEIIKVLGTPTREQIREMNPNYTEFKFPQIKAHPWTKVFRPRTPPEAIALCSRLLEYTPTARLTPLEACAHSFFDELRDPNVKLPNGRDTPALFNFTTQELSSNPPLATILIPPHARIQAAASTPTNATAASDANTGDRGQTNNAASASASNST

SMILES	IC50 [1] [µM]	IC50 [2] [µM]
c1cc(-c2cnnn2C2C3CC4CC(C3)CC2C4)ccn1 (stereo unspecified)	4.8	2.6
Cc1ccccc1-n1cc(-c2ccccn2)nn1	9.3	0.49
c1cnc2cc(-c3cnnn3C3C4CC5CC(C4)CC3C5)ccc2n1 (stereo unspecified)	3.1	2.8
c1cnc2cc(-c3cn(CCN4CCOCC4)nn3)ccc2n1	10.9	
c1cnc2cc(-c3cn(C4C5CC6CC(C5)CC4C6)nn3)ccc2n1 (stereo unspecified)	9.7	
c1ccc(Cn2cc(-c3ccc4nccnc4c3)nn2)cc1	6.3	9.5
c1ccc(-c2cnnn2C2C3CC4CC(C3)CC2C4)nc1 (stereo unspecified)	10.2	

More lines, now with the values ahead:

IC50 [1] [µM]	IC50 [2] [µM]	SMILES
6.7		Fc1ccc(-n2cc(-c3ccccn3)nn2)cc1
6.3		Clc1ccc(-n2cc(-c3ccccn3)nn2)cc1
1.1	> 30	Cc1ccc(-n2cc(-c3ccccn3)nn2)cc1
6.6		Cc1ccc(-n2cc(-c3ccncc3)nn2)cc1
1.4		Fc1ccc(-n2nncc2-c2ccncc2)cc1
12.4		Fc1ccc(-n2cc(-c3ccc4nccnc4c3)nn2)cc1
6.2	6.3	Cc1ccccc1-n1nncc1-c1ccncc1
2.3		Cc1ccc(-n2nncc2-c2ccncc2)cc1
